How the values were obtained:
Format in all cases: cell-based
[1] = tested on: human acute myeloid leukemia cell line KG-1 cells; experiment: Proliferation inhibition, KG-1 cells (CellTiter-Glo); details: KG-1, 72 h, 3 days culture
Protocol: KG-1 is a cell line originated from human acute myeloid leukemia and the BTK expression has been confirmed (J. Immunol. 1994; 152(2):557-565). The human acute myeloid leukemia cell line KG-1 cells (American Type Culture Collection, CCL-246) cultured in RPMI1640 medium (Sigma) containing 10% bovine serum were seeded into 96 well plates. On the next day, DMSO solutions of the test compound B at final concentrations from 1 nM to 10 μM or only DMSO (DMSO group) were added thereto to culture the cells at 37° C. in 5% CO2 for 3 days. Thereafter, the cell number was measured using a cell counting reagent (CellTiter-Glo (registered trademark) Luminescent Cell Viability Assay (Promega)). The cell proliferation inhibition rate was calculated as the measured value in the DMSO group set as 0% inhibition and the measured value in the well only with the medium on which the cells have not been seeded set as 100% inhibition.

[2] = tested on: human diffuse large B-cell lymphoma cell line OCI-Ly10 cells; experiment: Proliferation inhibition, OCI-Ly10 cells (CellTiter-Glo); details: OCI-Ly10, 72 h, 3 days culture, 100% inhibition = value on day of cell seeding
Protocol: OCI-Ly10 is a cell line originated from human diffuse large B-cell lymphoma, which is a B-cell malignant neoplasm, and the BTK dependency has been confirmed (Nature. 2010; 463:88-92). The human diffuse large B-cell lymphoma cell line OCI-Ly 10 cells (University Health Network) cultured in an Iscove's Modified Dulbecco's Medium (Sigma) containing a 20% bovine serum were seeded into 96 well plates. On the same day, DMSO solutions of the test compound B at a final concentrations from 0.1 nM to 1 μM or only DMSO (DMSO group) were added thereto to culture the cells at 37° C. in 5% CO2 for 3 days. Thereafter, the cell number was measured using a cell counting reagent (CellTiter-Glo (registered trademark) Luminescent Cell Viability Assay (Promega)). The cell proliferation inhibition rate was calculated by the measured value in the DMSO group set as 0% inhibition and the measured value in the DMSO group on day of cell seeding set as 100% inhibition.

[3] = tested on: human acute megakaryocytic leukemia cell line CMK cells; experiment: Proliferation inhibition, CMK cells (CellTiter-Glo); details: 96 h, 4 days culture
Protocol: CMK is a cell line originated from human acute megakaryocytic leukemia and the activation of JAK 3 has been confirmed (Cancer Cell. 2006; 10:65-75). The human acute megakaryocytic leukemia cell line CMK cells (DSMZ, ACC392) cultured in RPMI1640 medium (Sigma) containing 20% bovine serum and 2 mM of glutamine were inoculated into 96 well plates. On the same day, DMSO solutions of the test compound B at final concentrations from 1 nM to 10 μM or only DMSO (DMSO group) were added thereto to culture the cells at 37° C. in 5% CO2 for 4 days. Thereafter, the cell number was measured using a cell counting reagent (CellTiter-Glo (registered trademark) Luminescent Cell Viability Assay (Promega)). The cell proliferation inhibition rate was calculated as the measured value in the DMSO group set as 0% inhibition and the measured value in the well only with the medium on which the cells have not been seeded set as 100% inhibition.

[4] = tested on: human anaplastic large cell lymphoma cell line SU-DHL-1 cells; experiment: Proliferation inhibition, SU-DHL-1 cells (CellTiter-Glo); details: SU-DHL-1, 96 h, 4 days culture
Protocol: SU-DHL-1 is a cell line originated from human anaplastic large cell lymphoma and the activation of JAK 3 has been confirmed (Leukemia. 2014; 28:941-944). The human anaplastic large cell lymphoma cell line SU-DHL-1 cells (American Type Culture Collection, CRL-2955) cultured in RPMI1640 medium (Sigma) containing 10% bovine serum were seeded into 96 well plates. On the same day, DMSO solutions of the test compound B at a final concentrations from 1 nM to 10 μM or only DMSO (DMSO group) was added thereto to culture the cells at 37° C. in 5% CO2 for 4 days. Thereafter, the cell number was measured using a cell counting reagent (CellTiter-Glo (registered trademark) Luminescent Cell Viability Assay (Promega)). The cell proliferation inhibition rate was calculated as the measured value in the DMSO group set as 0% inhibition and the measured value in the well only with the medium on which the cells have not been seeded set as 100% inhibition.

Compound C=CC(=O)N1CC[C@@H](Oc2nc(Nc3ccc(N4CCC(N5CCN(C)CC5)CC4)cc3)c(C(N)=O)nc2CC)C1 [test compound B, 5-{[(3R)-1-acryloylpyrrolidin-3-yl]oxy}-6-ethyl-3-({4-[4-(4-methylpiperazin-1-yl)piperidin-1-yl]phenyl}amino)pyrazine-2-carboxamide monomethanesulfonate] has an IC50 [1] of 38 nM, a GI50 [2] of 1 nM and an IC50 [3] of 110 nM. For the same compound, the IC50 [4] was 120 nM.

Source: patent US20170196859A1, “PHARMACEUTICAL COMPOSITION COMPRISING PYRAZINE CARBOXAMIDE COMPOUND AS ACTIVE INGREDIENT” (Astellas Pharma Inc., priority 2014, published 2017)
